# Laboratory results reported in US8053574B2, “Organic compounds” (Novartis AG, priority 2007, dated 2011).
# Molecular target: PI3K γ (Homo sapiens, UniProt P48736)
# Assay: PI3 kinase phosphorylation assay (Biological Method 1), Ki γ
# Assay type: biochemical
# Details: Table 1, compounds of formula X
# Method: The compounds of the invention were synthesized according to the examples provided above. PI3K inhibitory (IC50) values of the compounds were determined according to Biological Method 1.
# Assay 1: Homogenous Solution Phase Assay
# Compounds to be tested are dissolved in DMSO and directly distributed into 384-well flashplates at 1.25 μL per well. To start the reaction, 20 μL of 6 nM PI3 kinase are added into each well followed by 20 μL of 400 nM ATP containing a trace of radiolabeled ATP and 900 nM 1-alpha-phosphatidylinositol (PI). The plates are briefly centrifuged to remove any air gap. The reaction is performed for 15 minutes and then stopped by the addition of 20 μL of 100 mM EDTA. The stopped reaction is incubated overnight at RT to allow the lipid substrate to bind by hydrophobic interaction to the surface of the flashplate. The liquid in the wells is then washed away, and the labeled substrate is detected with scintillation counting.
# Assay 2: One Step Solid Phase Assay
# This method is similar to Assay 1 except that the lipid substrate (1-alpha-phosphatidylinositol (PI)) is first dissolved in a coating buffer and incubated on flashplate at room temperature overnight to allow the lipid substrate to bind by hydrophobic interaction to the surface of the flashplate. Unbound substrate is then washed away. On the day of assay, 20 μL of 6 nM PI3 kinase are added into each well followed by 20 μL of 400 nM ATP containing trace of radiolabeled ATP. Compounds are added together with enzyme and ATP to the lipid-coated plates. The plates are briefly centrifuged to remove any air gap. The reaction is performed for two to three hours. The reaction is stopped by addition of 20 μL of 100 mM EDTA or by immediate plate washing. Phosphorylated lipid substrate is detected by scintillation counting.
# Assay 3: ATP Depletion Assay
# Compounds to be tested are dissolved in DMSO and directly distributed into a black 384-well plate at 1.25 μL per well. To start the reaction, 25 μL of 10 nM PI3 kinase and 5 μg/mL 1-alpha-phosphatidylinositol (PI) are added into each well followed by 25 μL of 2 μM ATP. The reaction is performed until approx 50% of the ATP is depleted, and then stopped by the addition of 25 μL of KinaseGlo solution. The stopped reaction is incubated for 5 minutes and the remaining ATP is then detected via luminescence.
# Chain of PI3K γ (P48736 whole entry): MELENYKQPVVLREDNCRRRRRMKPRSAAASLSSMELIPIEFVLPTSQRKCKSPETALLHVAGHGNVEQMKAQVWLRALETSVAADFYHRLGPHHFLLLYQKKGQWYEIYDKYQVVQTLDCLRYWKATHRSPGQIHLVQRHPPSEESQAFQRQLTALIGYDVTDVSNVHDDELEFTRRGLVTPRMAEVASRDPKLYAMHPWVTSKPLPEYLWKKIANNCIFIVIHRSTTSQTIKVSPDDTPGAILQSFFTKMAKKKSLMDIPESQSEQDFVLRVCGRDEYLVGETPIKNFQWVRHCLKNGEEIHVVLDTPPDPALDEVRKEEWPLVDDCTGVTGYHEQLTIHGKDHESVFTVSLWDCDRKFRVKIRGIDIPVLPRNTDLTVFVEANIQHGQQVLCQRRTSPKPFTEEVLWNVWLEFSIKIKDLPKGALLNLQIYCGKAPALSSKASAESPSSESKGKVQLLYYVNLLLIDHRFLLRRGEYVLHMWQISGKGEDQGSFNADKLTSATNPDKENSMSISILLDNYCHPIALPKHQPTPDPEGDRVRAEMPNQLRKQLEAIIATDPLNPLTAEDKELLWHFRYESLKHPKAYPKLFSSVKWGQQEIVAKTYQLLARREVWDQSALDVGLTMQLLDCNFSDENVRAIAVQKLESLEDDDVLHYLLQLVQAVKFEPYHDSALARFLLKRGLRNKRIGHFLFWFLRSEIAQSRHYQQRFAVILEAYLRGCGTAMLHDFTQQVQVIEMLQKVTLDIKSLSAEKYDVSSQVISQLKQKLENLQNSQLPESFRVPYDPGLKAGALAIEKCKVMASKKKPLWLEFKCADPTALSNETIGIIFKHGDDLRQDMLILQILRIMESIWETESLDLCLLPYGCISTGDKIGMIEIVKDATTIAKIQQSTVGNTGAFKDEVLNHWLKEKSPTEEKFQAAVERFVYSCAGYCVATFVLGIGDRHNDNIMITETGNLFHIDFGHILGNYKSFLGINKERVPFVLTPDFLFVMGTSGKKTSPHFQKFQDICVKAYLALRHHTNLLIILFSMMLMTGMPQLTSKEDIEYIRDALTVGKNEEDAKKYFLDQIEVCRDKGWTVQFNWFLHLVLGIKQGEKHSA
row,Ki [µM],Structure (SMILES)
1,0.025,CCc1cncc(-c2ccc3nc(NC(=O)NCCc4nnn(C(C)C)n4)cn3c2)c1 [drawing 57]
2,0.048,CCOc1cncc(-c2ccc3nc(NC(=O)NCCc4nnn(C(C)C)n4)cn3c2)c1 [drawing 25]
3,1.12,Cc1ccccc1-c1cncc(-c2ccc3nc(NC(=O)NCCc4nnn(C(C)C)n4)cn3c2)c1 [drawing 91]
4,0.165,CC(C)n1nnc(CCNC(=O)Nc2cn3cc(-c4cncnc4)ccc3n2)n1 [drawing 21]
5,0.303,CCn1nnc(CCNC(=O)Nc2cn3cc(-c4ccc5c(c4)OCO5)ccc3n2)n1 [drawing 29]
6,0.113,Cc1ccc(-c2ccc3nc(NC(=O)NCCc4nnn(C(C)C)n4)cn3c2)cn1 [drawing 61]
7,0.158,CCn1nnc(CCNC(=O)Nc2cn3cc(-c4cncc5ccccc45)ccc3n2)n1 [drawing 97]
8,0.115,CCc1nnn(CCNC(=O)Nc2cn3cc(-c4cncc(C#N)c4)ccc3n2)n1 [drawing 65]
9,0.24,CCn1nnc(CCNC(=O)Nc2cn3cc(-c4cccc(C(F)(F)F)c4)ccc3n2)n1 [drawing 31]
10,0.018,CC(C)n1nnc(CCNC(=O)Nc2cn3cc(-c4cncc(C(F)(F)F)c4)ccc3n2)n1 [drawing 27]
11,0.014,CC(C)n1nnc(CCNC(=O)Nc2cn3cc(-c4cncc(S(C)(=O)=O)c4)ccc3n2)n1
12,0.147,CC(C)n1nnc(CCNC(=O)Nc2cn3cc(-c4cncc(OC5CCOCC5)c4)ccc3n2)n1 [drawing 39]
13,0.04,CC(C)n1nnc(CCNC(=O)Nc2cn3cc(-c4cncc(C#N)c4)ccc3n2)n1 [drawing 19]
14,0.135,CC(C)n1nnc(CCNC(=O)Nc2cn3cc(-c4ccncc4)ccc3n2)n1 [drawing 17]

# Same assay, conditions: Table 2, compounds of formula X
row,Ki [µM],Structure (SMILES)
1,0.204,"CCn1nnc(CCNC(=O)Nc2cn3cc(-c4cc(Cl)ccc4OC)ccc3n2)n1 [Example 1-14, 1-[6-(5-Chloro-2-methoxy-phenyl)-imidazo[1,2-a]pyridin-2-yl]-3-[2-(2-ethyl-2H-tetrazol-5-yl)-ethyl]urea]"
2,0.423,"CC(C)n1nnc(CCNC(=O)Nc2cn3cc(-c4ccccc4)ccc3n2)n1 [Example 1-31, 1-[2-(2-Isopropyl-2H-tetrazol-5-yl)-ethyl]-3-(6-phenyl-imidazo[1,2-a]pyridin-2-yl)-urea]"
3,0.025,"CCc1cncc(-c2ccc3nc(NC(=O)NCCc4nnn(C(C)C)n4)cn3c2)c1 [Example 1-22, 1-[6-(5-Ethyl-pyridin-3-yl)-imidazo[1,2-a]pyridin-2-yl]-3-[2-(2-isopropyl-2H-tetrazol-5-yl)-ethyl]-urea]"
4,0.048,"CCOc1cncc(-c2ccc3nc(NC(=O)NCCc4nnn(C(C)C)n4)cn3c2)c1 [Example 1-6, 1-[6-(5-Ethoxy-pyridin-3-yl)-imidazo[1,2-a]pyridin-2-yl]-3-[2-(2-isopropyl-2H-tetrazol-5-yl)-ethyl]-urea]"
5,0.165,"CC(C)n1nnc(CCNC(=O)Nc2cn3cc(-c4cncnc4)ccc3n2)n1 [Example 1-4, 1-[2-(2-Isopropyl-2H-tetrazol-5-yl)-ethyl]-3-(6-pyrimidin-5-yl-imidazo[1,2-a]pyridin-2-yl)-urea]"
6,0.268,"COCCOCCOc1cncc(-c2ccc3nc(NC(=O)NCCc4nnn(C(C)C)n4)cn3c2)c1 [Example 1-17, 1-[2-(2-Isopropyl-2H-tetrazol-5-yl)-ethyl]-3-(6-{5-[2-(2-methoxy-ethoxy)-ethoxy]-pyridin-3-yl}-imidazo[1,2-a]pyridin-2-yl)-urea]"
7,0.115,"CCc1nnn(CCNC(=O)Nc2cn3cc(-c4cncc(C#N)c4)ccc3n2)n1 [Example 1-26, 1-[6-(5-Cyano-pyridin-3-yl)-imidazo[1,2-a]pyridin-2-yl]-3-[2-(5-ethyl-tetrazol-2-yl)-ethyl]-urea]"
8,0.303,"CCn1nnc(CCNC(=O)Nc2cn3cc(-c4ccc5c(c4)OCO5)ccc3n2)n1 [Example 1-8, 1-(6-Benzo[1,3]dioxol-5-yl-imidazo[1,2-a]pyridin-2-yl)-3-[2-(2-ethyl-2H-tetrazol-5-yl)-ethyl]urea]"
9,0.113,"Cc1ccc(-c2ccc3nc(NC(=O)NCCc4nnn(C(C)C)n4)cn3c2)cn1 [Example 1-24, 1-[2-(2-Isopropyl-2H-tetrazol-5-yl)-ethyl]-3-[6-(6-methyl-pyridin-3-yl)-imidazo[1,2-a]pyridin-2-yl]urea]"
10,0.002,"O=C(NCCc1nnn(CCF)n1)Nc1cn2cc(-c3cncc(C(F)(F)F)c3)ccc2n1 [Example 1-35, 1-{2-[2-(2-Fluoro-ethyl)-2H-tetrazol-5-yl]-ethyl}-3-[6-(5-trifluoromethyl-pyridin-3-yl)-imidazo[1,2-a]pyridin-2-yl]-urea]"
11,0.028,"O=C(NCCn1nnc(C2CC2)n1)Nc1cn2cc(-c3cncc(C(F)(F)F)c3)ccc2n1 [Example 1-27, 1-[2-(5-Cyclopropyl-tetrazol-2-yl)-ethyl]-3-[6-(5-trifluoromethyl-pyridin-3-yl)-imidazo[1,2-a]pyridin-2-yl]-urea]"
12,0.05,"CC(C)n1nnc(CCNC(=O)Nc2cn3cc(-c4cncc(Cl)c4)ccc3n2)n1 [Example 1-12, 1-[6-(5-Chloro-pyridin-3-yl)-imidazo[1,2-a]pyridin-2-yl]-3-[2-(2-isopropyl-2H-tetrazol-5-yl)-ethyl]urea]"
13,0.075,"COc1ccc(-c2ccc3nc(NC(=O)NCCc4nnn(CCF)n4)cn3c2)cn1 [Example 1-20, 1-[2-[2-(2-Fluoro-ethyl)-2H-tetrazol-5-yl]-ethyl]-3-[6-(6-methoxy-pyridin-3-yl)-imidazo[1,2-a]pyridin-2-yl]-urea]"
14,0.24,"CCn1nnc(CCNC(=O)Nc2cn3cc(-c4cccc(C(F)(F)F)c4)ccc3n2)n1 [Example 1-9, 1-[2-(2-Ethyl-2H-tetrazol-5-yl)-ethyl]-3-[6-(3-trifluoromethyl-phenyl)-imidazo[1,2-a]pyridin-2-yl]-urea]"
15,0.57,"CCn1nnc(CCNC(=O)Nc2cn3cc(-c4cnc5ccccc5c4)ccc3n2)n1 [Example 1-30, 1-[2-(2-Ethyl-2H-tetrazol-5-yl)-ethyl]-3-(6-quinolin-3-yl-imidazo[1,2-a]pyridin-2-yl)-urea]"
16,1.12,"Cc1ccccc1-c1cncc(-c2ccc3nc(NC(=O)NCCc4nnn(C(C)C)n4)cn3c2)c1 [Example 1-39, 1-[2-(2-Isopropyl-2H-tetrazol-5-yl)-ethyl]-3-[6-(5-o-tolyl-pyridin-3-yl)-imidazo[1,2-a]pyridin-2-yl]urea]"
17,0.028,"CCn1cnc(CCNC(=O)Nc2cn3cc(-c4cncc(C(F)(F)F)c4)ccc3n2)c1 [Example 1-23, 1-[2-(1-Ethyl-1H-imidazol-4-yl)-ethyl]-3-[6-(5-trifluoromethyl-pyridin-3-yl)-imidazo[1,2-a]pyridin-2-yl]-urea]"

# Same assay, conditions: Table 3, compounds of formula XI
row,Ki [µM],Structure (SMILES)
1,0.016,"O=C(NCCc1nnn(CCF)n1)Nc1nc2ccc(-c3cncc(C(F)(F)F)c3)cc2s1 [Example 2-8, 1-{2-[2-(2-Fluoro-ethyl)-2H-tetrazol-5-yl]-ethyl}-3-[6-(5-trifluoromethyl-pyridin-3-yl)-benzothiazol-2-yl]urea]"
2,0.0055,"O=C(NCCc1nnn(CCF)n1)Nc1nc2ccc(-c3cncc(C(=O)N4CCOCC4)c3)cc2s1 [Example 2-7, 1-{2-[2-(2-Fluoro-ethyl)-2H-tetrazol-5-yl]-ethyl}-3-{6-[5-(morpholine-4-carbonyl)-pyridin-3-yl]-benzothiazol-2-yl}-urea]"
3,0.038,"COc1ccc(-c2ccc3nc(NC(=O)NCCO)sc3c2)cn1 [Example 2-4, 1-(2-Hydroxy-ethyl)-3-[6-(6-methoxy-pyridin-3-yl)-benzothiazol-2-yl]-urea]"
4,0.092,"CC(C)n1nnc(CCNC(=O)Nc2nc3ccc(-c4cncc(C(F)(F)F)c4)cc3s2)n1 [Example 2-10, 1-[2-(2-Isopropyl-2H-tetrazol-5-yl)-ethyl]-3-[6-(5-trifluoromethyl-pyridin-3-yl)-benzothiazol-2-yl]urea]"
5,0.06,"CCn1nnc(CCNC(=O)Nc2nc3ccc(-c4cncc(C(F)(F)F)c4)cc3s2)n1 [Example 2-9, 1-[2-(2-Ethyl-2H-tetrazol-5-yl)-ethyl]-3-[6-(5-trifluoromethyl-pyridin-3-yl)-benzothiazol-2-yl]-urea]"
6,0.406,"CCNC(=O)Nc1nc2ccc(-c3ccc(OC)nc3)cc2s1 [Example 2-6, 1-Ethyl-3-[6-(6-methoxy-pyridin-3-yl)-benzothiazol-2-yl]urea]"

# Same assay, conditions: Table 4
row,Ki [µM],Structure (SMILES)
1,0.107,"CCn1nnc(CCNC(=O)Nc2cn3nc(-c4cncc(F)c4)ccc3n2)n1 [Example 3-17, 1-[2-(2-Ethyl-2H-tetrazol-5-yl)-ethyl]-3-[6-(5-fluoro-pyridin-3-yl)-imidazo[1,2-b]pyridazin-2-yl]-urea]"
2,0.418,"CCn1nnc(CCNC(=O)Nc2nc3ccc(-c4cncc(C#N)c4)cn3n2)n1 [Example 3-9, 1-[6-(5-Cyano-pyridin-3-yl)-[1,2,4]triazolo[1,5-a]pyridin-2-yl]-3-[2-(2-ethyl-2H-tetrazol-5-yl)-ethyl]-urea]"
